Assay results taken from patent publication US8501446B2 (Vertex Pharmaceuticals Incorporated, priority 2004, dated 2013).

What was measured:
ROCK I (AA 6-553) = target: T1, ROCK I (AA 6-553) (Homo sapiens, UniProt Q13464); test: ROCK inhibition assay, standard coupled enzyme system ("Enzyme"); assay type: biochemical; details: enzyme-linked assay
T1 construct: ROCK I (AA 6-553)
Procedure: Compounds were screened for their ability to inhibit ROCK I (AA 6-553) activity using a standard coupled enzyme system (Fox et al. (1998) Protein Sci. 7, 2249). Reactions were carried out in a solution containing 100 mM HEPES (pH 7.5), 10 mM MgCl2, 25 mM NaCl, 2 mM DTT and 1.5% DMSO. Final substrate concentrations in the assay were 45 μM ATP (Sigma Chemicals, St Louis, Mo.) and 200 μM peptide (American Peptide, Sunnyvale, Calif.). Reactions were carried out at 30° C. and 45 nM ROCK L. Final concentrations of the components of the coupled enzyme system were 2.5 mM phosphoenolpyruvate, 350 μM NADH, 30 μg/ml pyruvate kinase and 10 μg/ml lactate dehydrogenase.

[1] = target: T2, full length Aurora-A (AA 1-403) (Homo sapiens, UniProt O14965); test: Aurora-A inhibition assay, standard coupled enzyme system; assay type: biochemical; details: average Ki if more than one value determined
T2 construct: full length Aurora-A (AA 1-403)
T2 sequence (O14965 1-403): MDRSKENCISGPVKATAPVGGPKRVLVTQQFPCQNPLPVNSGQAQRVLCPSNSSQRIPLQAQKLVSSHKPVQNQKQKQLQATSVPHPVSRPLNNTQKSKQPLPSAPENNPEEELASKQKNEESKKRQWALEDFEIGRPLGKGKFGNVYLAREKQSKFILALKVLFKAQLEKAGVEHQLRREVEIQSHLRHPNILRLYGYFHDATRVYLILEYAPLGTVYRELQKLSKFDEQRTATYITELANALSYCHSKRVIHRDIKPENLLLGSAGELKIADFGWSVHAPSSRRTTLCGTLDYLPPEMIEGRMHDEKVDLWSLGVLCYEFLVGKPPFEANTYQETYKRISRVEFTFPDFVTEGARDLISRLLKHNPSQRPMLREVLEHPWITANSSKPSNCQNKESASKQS
Procedure: Compounds were screened for their ability to inhibit full length Aurora-A (AA 1-403) activity using a standard coupled enzyme system (Fox et al., Protein Sci. 7, pp. 2249 (1998)). Reactions were carried out in a solution containing 100 mM HEPES (pH 7.5), 10 mM MgCl2, 25 mM NaCl, 300 μM NADH, 1 mM DTT and 3% DMSO. Final substrate concentrations in the assay were 200 μM ATP (Sigma Chemicals, St Louis, Mo.) and 800 μM peptide (LRRASLG, American Peptide, Sunnyvale, Calif.). Reactions were carried out at 30° C. and 35 nM Aurora-A. Final concentrations of the components of the coupled enzyme system were 2.5 mM phosphoenolpyruvate, 200 μM NADH, 60 μg/ml pyruvate kinase and 20 μg/ml lactate dehydrogenase.
An assay stock buffer solution was prepared containing all of the reagents listed above with the exception of ATP and the test compound of interest. The assay stock buffer solution (60 μl) was incubated in a 96 well plate with 2 μl of the test compound of interest at final concentrations spanning 0.002 μM to 30 μM at 30° C. for 10 min. Typically, a 12 point titration was conducted by preparing serial dilutions (from 1 mM compound stocks) with DMSO of the test compounds in daughter plates. The reaction was initiated by the addition of 5 μl of ATP (final concentration 200 μM). Rates of reaction were obtained using a Molecular Devices Spectramax plate reader (Sunnyvale, Calif.) over 10 min at 30° C. The Ki values were determined from the rate data as a function of inhibitor concentration using computerized nonlinear regression (Prism 3.0, Graphpad Software, San Diego, Calif.). Aurora-C activity was screened in a similar manner using Aurora-C protein. Aurora-B activity was screened using a radioactive assay, such as described in Examples 1 and 2, but using Aurora-B protein.

T1 sequence (Q13464 6-553, species assumed): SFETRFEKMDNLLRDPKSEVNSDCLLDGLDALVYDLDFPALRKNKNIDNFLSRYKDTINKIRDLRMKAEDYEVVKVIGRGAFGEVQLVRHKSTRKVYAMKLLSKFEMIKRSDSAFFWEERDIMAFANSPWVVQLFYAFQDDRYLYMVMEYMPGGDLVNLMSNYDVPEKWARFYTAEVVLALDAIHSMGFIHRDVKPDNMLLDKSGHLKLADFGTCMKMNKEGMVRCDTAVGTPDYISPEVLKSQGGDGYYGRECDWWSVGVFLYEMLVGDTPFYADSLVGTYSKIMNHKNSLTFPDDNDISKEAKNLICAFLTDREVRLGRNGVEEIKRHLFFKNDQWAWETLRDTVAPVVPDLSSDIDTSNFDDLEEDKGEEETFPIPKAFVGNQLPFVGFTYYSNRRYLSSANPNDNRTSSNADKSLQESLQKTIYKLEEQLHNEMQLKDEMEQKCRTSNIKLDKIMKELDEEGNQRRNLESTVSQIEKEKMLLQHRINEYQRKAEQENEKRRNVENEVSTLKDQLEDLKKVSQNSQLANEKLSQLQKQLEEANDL

| Compound | Ki (ROCK I (AA 6-553)) | Ki [1] |
| --- | --- | --- |
| C[C@H](Nc1nc(-c2c[nH]c3ncc(Cl)cc23)ncc1F)c1ccccc1 [Compound 286] | 500 to 5000 nM | < 500 nM |
| C[C@H](Nc1nc(-c2c[nH]c3ncc(Cl)cc23)ncc1F)C(=O)NC1CC1 [Compound 338] | 500 to 5000 nM | < 500 nM |
| CN1CCN(c2cccc(-c3c[nH]c4ncc(Cl)cc34)n2)CC1 [Compound 275] | 500 to 5000 nM | 500 to 5000 nM |
| CN(C)CCCNc1cccc(-c2c[nH]c3ncc(Cl)cc23)n1 [Compound 271] | 500 to 5000 nM | < 500 nM |
| CNc1cccc(-c2c[nH]c3ncc(-c4ccccc4)cc23)n1 [Compound 278] | < 500 nM | < 500 nM |
| Fc1cnc(-c2c[nH]c3ncc(Cl)cc23)nc1NC[C@H]1CCNC1 [Compound 379] | < 500 nM | < 500 nM |
| O=Cc1cc(-c2c[nH]c3ncc(Cl)cc23)nc(N2CCNCC2)c1 [Compound 409] | < 500 nM | < 500 nM |
| COc1ccc(CNc2cccc(-c3c[nH]c4ncc(Cl)cc34)n2)cc1OC [Compound 297] | 500 to 5000 nM | < 500 nM |
| CC(C)Oc1cnc(-c2c[nH]c3ncc(Cl)cc23)nc1N[C@@H](C)C(=O)NCC(F)(F)F [Compound 410] | 500 to 5000 nM | < 500 nM |
| Clc1ccc(CNc2cccc(-c3c[nH]c4ncc(Cl)cc34)n2)c(Cl)c1 [Compound 244] | 500 to 5000 nM | 500 to 5000 nM |
| O=C(Nc1cccc(-c2c[nH]c3ncc(Cl)cc23)n1)c1cccnc1 [Compound 296] | 500 to 5000 nM | < 500 nM |
| NC(=O)c1ccc(-c2c[nH]c3ncc(-c4ccc(F)cc4)cc23)cc1 [Compound 227] | < 500 nM | < 500 nM |
| C[C@H](Nc1nc(-c2c[nH]c3ncc(Cl)cc23)ncc1F)C(=O)N(C)C [Compound 337] | 500 to 5000 nM | < 500 nM |
| CCCNc1cccc(-c2c[nH]c3ncc(-c4ccccc4)cc23)n1 [Compound 259] | < 500 nM | < 500 nM |
| Clc1cnc2[nH]cc(-c3cccc(Nc4ccccc4)n3)c2c1 [Compound 243] | 500 to 5000 nM | < 500 nM |
| C[C@H](Nc1nc(-c2c[nH]c3ncc(Cl)cc23)ncc1F)C(=O)NCCF [Compound 365] | 500 to 5000 nM | < 500 nM |
| CS(=O)(=O)c1ccc(CNc2cccc(-c3c[nH]c4ncc(Cl)cc34)n2)cc1 [Compound 247] | 500 to 5000 nM | < 500 nM |
| COc1ccc(-c2c[nH]c3ncc(-c4ccc(F)cc4)cc23)cc1 [Compound 224] | < 500 nM | < 500 nM |
| OCCNc1cccc(-c2c[nH]c3ncc(-c4ccccc4)cc23)n1 [Compound 277] | < 500 nM | < 500 nM |
| Fc1cnc(-c2c[nH]c3ncc(Cl)cc23)nc1SCc1ccc(Cl)cc1 [Compound 308] | 500 to 5000 nM | 500 to 5000 nM |
| O=C(Nc1cccc(-c2c[nH]c3ncc(Cl)cc23)n1)c1ccccc1 [Compound 249] | 500 to 5000 nM | < 500 nM |
| CN(c1ccccc1)c1cccc(-c2c[nH]c3ncc(Cl)cc23)n1 [Compound 284] | 500 to 5000 nM | 500 to 5000 nM |
| CC(C)NC(=O)[C@H](C)Nc1nc(-c2c[nH]c3ncc(Cl)cc23)ncc1F [Compound 363] | 500 to 5000 nM | < 500 nM |
| COC(=O)c1cnc2[nH]cc(-c3ncc(F)c(N[C@@H](C)c4ccc(F)cc4)n3)c2c1 [Compound 307] | < 500 nM | < 500 nM |
| Clc1ccc(CNc2cccc(-c3c[nH]c4ncc(-c5ccccc5)cc34)n2)cc1Cl [Compound 261] | 500 to 5000 nM | 500 to 5000 nM |
| Fc1cnc(-c2c[nH]c3ncc(Cl)cc23)nc1NCC1CCOCC1 [Compound 366] | 500 to 5000 nM | < 500 nM |
| OCCNc1cccc(-c2c[nH]c3ncc(Cl)cc23)n1 [Compound 270] | 500 to 5000 nM | 500 to 5000 nM |
